Data on 20 compounds can be found in patent publication US9303015B2, “Heteroaryl linked quinolinyl modulators of RORγt” (Janssen Pharmaceutica NV, priority 2012, dated 2016).

Where a name gives a salt, the structure may show the parent alone. Bounds are passed on as bounds.

One assay has as its target human RORγt LBD (Homo sapiens (Human), UniProt P51449). Nature of the assay: RORγt reporter assay (GAL4-RORγt LBD luciferase, HEK293T cells). In kind it is cell-based. The conditions noted are these: for RORγt reporter Assay, % inhibition @ 6 μM: HEK293T cells; for inhibition at 6 µM: HEK-293T, read-out: RORγt reporter Assay, % inhibition @ 6 μM, 6 μM, HEK293T cells. An excerpt: A reporter assay was used to test functional activity of RORγt modulatory compounds on transcriptional activation driven by the RORγt LBD. Cells used in the assay were co-transfected with two constructs. The first construct, pBIND-RORγt LBD, contained the wild type human RORγt LBD fused to the DNA binding domain of the GAL4 protein. The second construct, pGL4.31 (Promega Cat no. C935A), contained multiple GAL4 responsive DNA elements upstream of firefly luciferase. […] The mutant construct was called pBIND-RORγt-AF2. […] The pBIND vector contains the GAL4 DNA Binding Domain (GAL4 DBD) and the renilla luciferase gene under control of the SV40 promoter. Renilla luciferase expression serves as a control for transfection efficiency and cell viability.
The reporter assay was performed by transiently transfecting HEK293T cells with 5 μg of pBIND-RORγt LBD or pBIND-RORγt LBD-AF2 and 5 μg pGL4.31 (Promega Cat no. C935A) using Fugene 6 (Invitrogen Cat no. E2691) at a 1:6 ratio of DNA: Fugene 6 in a T-75 flask in which cells were at least 80% confluent. Twenty four hours after bulk transfection, cells were plated into 96-well plates at 50,000 cells/well in phenol-red free DMEM containing 5% Lipid Reduced FCS and Pen/Strep. Six hours after plating, cells were treated with compounds for 24 hours. Media was removed and cells were lysed with 50 μL 1x Glo Lysis Buffer (Promega). Dual Glo Luciferase Reagent (50 μL/well) was then added and firefly luciferase luminescence was read on an Envision after a ten minute incubation. Finally, Stop and Glo reagent (50 μL/well) was added and renilla luciferase luminescence was read on an Envision after a ten minute incubation. To calculate the effect of compounds on RORγt activity, the ratio of firefly to renilla luciferase was determined and plotted against compound concentration. Agonist compounds increase RORγt-driven luciferase expression, and antagonist or inverse agonist compounds decrease luciferase expression.

Assay [1] relates to IL-17 production by CD4 T cells. Nature of the assay: Human Th17 assay. It counts as cell-based. The following applies: IL-17 in supernatant after 3 days, human CD4+ T cells under Th17 differentiation. The source says:
The human Th17 assay tests the effect of RORγt modulatory compounds on IL-17 production by CD4 T cells under conditions which favor Th17 differentiation.
Total CD4^+ T cells were isolated from the peripheral blood mononuclear cells (PBMC) of healthy donors using a CD4^+ T cell isolation kit II, following the manufacturer's instructions (Miltenyi Biotec). Cells were resuspended in a medium of RPMI-1640 supplemented with 10% fetal bovine serum, penicillin, streptomycin, glutamate, and β-mercaptoethanol and were added to 96-well plates at 1.5×10^5 per 100 μL per well. 50 μL of compound at titrated concentrations in DMSO were added into each well at final DMSO concentration at 0.2%. Cells were incubated for 1 hour, then 50 μL of Th17 cell differentiation medium was added to each well. The final concentrations of antibodies and cytokines (R&D Systems) in differentiation medium were: 3×10^6/mL anti-CD3/CD28 beads (prepared using human T cell activation/expansion kit, Miltenyi Biotec), 10 μg/mL anti-IL4, 10 μg/mL anti-IFNγ, 10 ng/mL IL113, 10 ng/mL IL23, 50 ng/mL IL6, 3 ng/mL TGFβ and 20 U/mL IL2. Cells were cultured at 37° C. and 5% CO2 for 3 days. Supernatants were collected and the accumulated IL-17 in culture was measured by using MULTI-SPOT® Cytokine Plate following manufacture's instruction (Meso Scale Discovery). The plate was read using Sector Imager 6000, and IL-17 concentration was extrapolated from the standard curve. The IC50s were determined by GraphPad.

Sequence of human RORγt LBD (P51449 258-518): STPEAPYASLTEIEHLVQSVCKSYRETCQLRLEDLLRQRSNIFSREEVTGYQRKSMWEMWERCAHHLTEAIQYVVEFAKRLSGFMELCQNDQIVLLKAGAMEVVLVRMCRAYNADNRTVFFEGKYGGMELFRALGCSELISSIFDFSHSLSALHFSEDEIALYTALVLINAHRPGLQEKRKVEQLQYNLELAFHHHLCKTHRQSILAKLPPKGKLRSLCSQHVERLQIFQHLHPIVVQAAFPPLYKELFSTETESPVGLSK

For orientation: IC50 means the concentration that gives 50% inhibition. A low value points to inhibition by little substance. In the case of `CCOc1nc2ccc(C(O)(c3ccc(Cl)cc3)c3cncn3C)cc2c(Cl)c1Oc1ccccc1` (single isomer, unassigned) [Example 2a, (4-Chloro-2-ethoxy-3-phenoxyquinolin-6-yl)(4-chlorophenyl)(1-methyl-1H-imidazol-5-yl)methanol.TFA], on human RORγt LBD, the “RORγt reporter Assay, % inhibition @ 6 μM” value is 88%. In assay [1], this compound came in with a concentration for half-maximal inhibition (IC50) of 0.61 µM.

One may read the inhibition as the change of the read-out against control, counted positive when it falls. For the compound `CCOc1nc2ccc(C(O)(c3ccc(Cl)cc3)c3cncn3C)cc2c(Cl)c1Oc1ccccc1` (single isomer, unassigned) [Example 2b], the inhibition at 6 µM on human RORγt LBD was 92%. 0.66 µM corresponded to half-maximal inhibition in assay [1] (IC50).

With `CCOc1nc2ccc(C(O)(c3ccc(Cl)cc3)c3cncn3C)cc2c(Cl)c1Oc1ccccc1` (single isomer, unassigned) [Example 2c], on human RORγt LBD, the “RORγt reporter Assay, % inhibition @ 6 μM” value is reported as 92%. Moreover, half-maximal inhibition in assay [1] (IC50) required 0.21 µM. Take `CCN(CC)c1nc2ccc(C(O)(c3ccc(Cl)cc3)c3cncn3C)cc2c(Cl)c1Oc1ccccc1` (single isomer, unassigned) [Example 3c, (4-Chloro-2-(diethylamino)-3-phenoxyquinolin-6-yl)(4-chlorophenyl)(1-methyl-1H-imidazol-5-yl)methanol]: the “RORγt reporter Assay, % inhibition @ 6 μM” value at human RORγt LBD is reported as 104%. Also, in assay [1] (Homo sapiens, CD4+ T, 72 h), half-maximal inhibition (IC50) was put at 0.12 µM. Consider `CCN(CC)c1nc2ccc(C(O)(c3ccc(OC)nc3)c3cncn3C)cc2c(Cl)c1Oc1ccccc1` (single isomer, unassigned) [Example 5b, (4-Chloro-2-(diethylamino)-3-phenoxyquinolin-6-yl)(6-methoxypyridin-3-yl)(1-methyl-1H-imidazol-5-yl)methanol], for which the inhibition at 6 µM at human RORγt LBD amounted to 98%. Further, half-maximal inhibition in assay [1] (Homo sapiens, CD4+ T, 72 h) (IC50) required 0.085 µM. Consider `CCN(CC)c1nc2ccc(C(O)(c3ccc(OC)nc3)c3cncn3C)cc2c(Cl)c1Oc1ccccc1` (single isomer, unassigned) [Example 5c, (4-Chloro-2-(diethylamino)-3-phenoxyquinolin-6-yl)(6-methoxypyridin-3-yl)(1-methyl-1H-imidazol-5-yl)methanol], for which, at human RORγt LBD, the “RORγt reporter Assay, % inhibition @ 6 μM” value amounted to 104%. In addition, 0.11 µM corresponded to half-maximal inhibition in assay [1] (IC50).

As for `CCN(CC)c1nc2ccc(C(O)(c3ccc(C(F)(F)F)nc3)c3cncn3C)cc2c(Cl)c1Oc1ccccc1` (single isomer, unassigned) [Example 6b, (4-Chloro-2-(diethylamino)-3-phenoxyquinolin-6-yl)(1-methyl-1H-imidazol-5-yl)(6-(trifluoromethyl)pyridin-3-yl)methanol], at human RORγt LBD, the inhibition at 6 µM is 93%. Also, the IC50 in assay [1] came to 0.05 µM. For `CCN(CC)c1nc2ccc(C(O)(c3ccc(C(F)(F)F)nc3)c3cncn3C)cc2c(Cl)c1Oc1ccccc1` (single isomer, unassigned) [Example 6c, (4-Chloro-2-(diethylamino)-3-phenoxyquinolin-6-yl)(1-methyl-1H-imidazol-5-yl)(6-(trifluoromethyl)pyridin-3-yl)methanol], the “RORγt reporter Assay, % inhibition @ 6 μM” value on human RORγt LBD is 88%. The compound also came in with an IC50 in assay [1] of 0.21 µM.

For `CCN(CC)c1nc2ccc(C(O)(c3ccc(C(F)(F)F)nc3)c3cncn3C)cc2c(Cl)c1Oc1ccc(F)cc1` (single isomer, unassigned) [Example 9b], on human RORγt LBD, the “RORγt reporter Assay, % inhibition @ 6 μM” value stood at 81%. This compound also gave an IC50 in assay [1] of 0.32 µM. On to `CCN(CC)c1nc2ccc(C(O)(c3ccc(C(F)(F)F)nc3)c3cncn3C)cc2c(Cl)c1Oc1ccc(F)cc1` (single isomer, unassigned) [Example 9c], for which the “RORγt reporter Assay, % inhibition @ 6 μM” value at human RORγt LBD is listed as 84%. The compound also yielded an IC50 in assay [1] of 0.092 µM.

Regarding `CCOc1nc2ccc(C(O)(c3ccc(OC)nc3)c3cncn3C)cc2c(Cl)c1Oc1ccccc1` (single isomer, unassigned) [Example 10b], at human RORγt LBD, the “RORγt reporter Assay, % inhibition @ 6 μM” value is given as 97%. The 50% inhibitory concentration (IC50) in assay [1] came to 0.078 µM. Taken in the same sequence, the figures for `CCOc1nc2ccc(C(O)(c3ccc(OC)nc3)c3cncn3C)cc2c(Cl)c1Oc1ccccc1` (single isomer, unassigned) [Example 10c] were 103% and 0.095 µM. In the case of `CCOc1nc2ccc(C(O)(c3ccc(C(F)(F)F)nc3)c3cncn3C)cc2c(C(F)(F)F)c1Oc1ccc(Cl)cc1` (single isomer, unassigned) [Example 25b, (3-(4-Chlorophenoxy)-2-ethoxy-4-(trifluoromethyl)quinolin-6-yl)(1-methyl-1H-imidazol-5-yl)(6-(trifluoromethyl)pyridin-3-yl)methanol], the “RORγt reporter Assay, % inhibition @ 6 μM” value on human RORγt LBD is reported as 92%. The same compound yielded an IC50 in assay [1] (Homo sapiens, CD4+ T, 72 h) of 0.44 µM.

For the compound `CCN(CC)c1nc2ccc(C(O)(c3ccc(C(F)(F)F)nc3)c3cncn3C)cc2c(C(F)(F)F)c1Oc1ccc(Cl)cc1` (single isomer, unassigned) [Example 27b, (3-(4-Chlorophenoxy)-2-(diethylamino)-4-(trifluoromethyl)quinolin-6-yl)(1-methyl-1H-imidazol-5-yl)(6-(trifluoromethyl)pyridin-3-yl)methanol], the inhibition at 6 µM on human RORγt LBD came out at 92%. In assay [1], this compound showed an IC50 of 0.051 µM. With `CCN(CC)c1nc2ccc(C(O)(c3ccc(C(F)(F)F)nc3)c3cncn3C)cc2c(C(F)(F)F)c1Oc1ccc(Cl)cc1` (single isomer, unassigned) [Example 27c, (3-(4-Chlorophenoxy)-2-(diethylamino)-4-(trifluoromethyl)quinolin-6-yl)(1-methyl-1H-imidazol-5-yl)(6-(trifluoromethyl)pyridin-3-yl)methanol], the “RORγt reporter Assay, % inhibition @ 6 μM” value at human RORγt LBD was determined as 89%. Inhibition in assay [1] was half-maximal at 0.49 µM (IC50).

In assay [1], `Cn1cncc1C(O)(c1ccc(C(F)(F)F)nc1)c1ccc2nc(N3CCC3)c(Oc3ccc(C#N)cc3)c(Cl)c2c1` (single isomer, unassigned) [Example 31b, 4-((2-(Azetidin-1-yl)-4-chloro-6-(hydroxy(1-methyl-1H-imidazol-5-yl)(6-(trifluoromethyl)pyridin-3-yl)methyl)quinolin-3-yl)oxy)benzonitrile] gave a half-inhibitory concentration (IC50) of around 0.1 µM.

On to `Cn1cncc1C(O)(c1ccc(C(F)(F)F)nc1)c1ccc2nc(N3CCC3)c(Oc3ccc(C#N)cc3)c(Cl)c2c1` (single isomer, unassigned) [Example 31c, 4-((2-(Azetidin-1-yl)-4-chloro-6-(hydroxy(1-methyl-1H-imidazol-5-yl)(6-(trifluoromethyl)pyridin-3-yl)methyl)quinolin-3-yl)oxy)benzonitrile], for which the IC50 in assay [1] amounted to 0.017 µM.

In turn, `Cn1cncc1C(O)(c1ccc(C(F)(F)F)nc1)c1ccc2nc(N3CCCC3)c(Oc3ccc(C#N)cc3)c(Cl)c2c1` (centres unmarked) [Example 33, 4-((4-Chloro-6-(hydroxy(1-methyl-1H-imidazol-5-yl)(6-(trifluoromethyl)pyridin-3-yl)methyl)-2-(pyrrolidin-1-yl)quinolin-3-yl)oxy)benzonitrile] yielded an IC50 in assay [1] (Homo sapiens, CD4+ T, 72 h) of 0.088 µM.

As to `CN(c1ccccc1)c1c(Cl)nc2ccc(C(O)(c3cccnc3)c3cccc(Cl)c3)cc2c1Cl` (centres unmarked) [Example 35, (3-Chlorophenyl)(2,4-dichloro-3-(methyl(phenyl)amino)quinolin-6-yl)(pyridin-3-yl)methanol], in assay [1] (Homo sapiens, CD4+ T, 72 h), the 50% inhibitory concentration (IC50) was around 1 µM. In assay [1] (Homo sapiens, CD4+ T, 72 h), `CCN(c1ccccc1)c1c(Cl)nc2ccc(C(O)(c3cccnc3)c3cccc(Cl)c3)cc2c1Cl` (centres unmarked) [Example 39, (3-Chlorophenyl)(2,4-dichloro-3-(ethyl(phenyl)amino)quinolin-6-yl)(pyridin-3-yl)methanol] yielded an IC50 above 6 µM.
